Measurements from PubChem BioAssay AID2060485 (Molecular Pharmacology Branch, DTP, NCI, 2025).

System: A375 multi-cell spheroids with HUVEC/MSC, viability
Experiment: Anticancer human tumor A375 cell line growth inhibition [GQUAD];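 note: spheroids exposed to compounds for seven days before readout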
Conditions: for IC50: curve of first compound; for viability, T/C: stronger effect = lower value
Source text: DNA G-quadruplex Stabilizer Agents in Combinations in Complex Spheroids
A high-throughput screen of multi-cell type tumor spheroids was designed to identify active combinations of DNA G-quadruplex stabilizer agents and targeted small molecules. Complex spheroids include a stromal component modeled by human endothelial cells (HUVEC) and fibroblasts modeled by human mesenchymal stem cells (MSCs). The concentration ranges selected for each drug and investigational agent were based upon clinically achievable concentrations if the clinical Cmax of the agent was known.
Compounds. The drugs and investigational agents: pidnarulex (CX-5461; NSC782164), APTO-253 (NSC789042), BRACO-19 (NSC847499), peposertib (NSC802822), ceralasertib (NSC780249), elimusertib (NSC800525), camonsertib (NSC841442), AZD-1390 (NSC803789), olaparib (NSC753686), talazoparib (NSC767125), ART-558 (NSC835418), sotorasib (NSC818433), MRTX-1133 (NSC836407), SN-38 (NSC673596), topotecan (NSC609699), etoposide (NSC141540), doxorubicin (NSC123127), gemcitabine (NSC613327), 5-fluorouracil (NSC19893), paclitaxel (NSC125973), vemurafenib (NSC761431), panobinostat (NSC761190), R-306465 (JNJ-16241199; NSC773264), adavosertib (NSC754352), TP-3654 (NSC805149), carboplatin (NSC241240), KSQ-4279 (NSC840948), and staurosporine (NSC755774) were obtained from the National Cancer Institute (NCI) Developmental Therapeutics Program Chemical Repository (34). The FDA-approved anticancer drug set is available from the NCI Developmental Therapeutics Program. […] The stock solutions were prepared in dimethyl sulfoxide (DMSO, Sigma-Aldrich, St. Louis, MO, cat. D2650) at 800-fold the tested concentration and stored at -70 degrees C prior to their use. All drugs and investigational agents were tested over a range starting from a high concentration at or near the clinical Cmax and decreasing in half-log increments. If the clinical Cmax for an agent had not been determined, the highest concentration tested was 10 microM.
2.3 Cell Culture. All cells were maintained in an incubator at 37 degrees C and 5% CO2 with 95% humidity. The PDC lines were cultured according to standard operating procedures established by the NCI PDMR. All PDCs were thawed and cultured in Matrigel-coated flasks prepared with a working solution of 1X Ham's F-12 nutrient mix, without supplementation (Invitrogen, cat. 11765054), 100 U/mL penicillin-streptomycin (Invitrogen, cat. 15140122), and 2.5% Matrigel (Corning Inc., cat. 354248) for the first three passages. The 857933-349-R-J2-PDC line was cultured in 6C/Colon 1B media, which includes advanced DMEM/F-12 (Thermo Fisher Scientific, cat. 12634028), 10 mM HEPES (Thermo Fisher Scientific, cat. 15630080), 1X GlutaMAX supplement (Thermo Fisher Scientific, cat. 35050061), 0.1 mg/mL primocin (InvivoGen, cat. ant-pm-2), 10% defined fetal bovine serum, heat inactivated (HyClone Laboratories Inc., cat. SH30070.03HI), 50% L-WRN conditioned media (ATCC, cat. CRL-3276), 1.25 mM N-Acetyl-L-cysteine (Sigma-Aldrich, cat. A9165), 10 mM nicotinamide (Sigma-Aldrich, cat. N0636), 1X B-27 supplement (Thermo Fisher Scientific, cat. 17504044), 1X N-2 supplement (Thermo Fisher Scientific, cat. 17502048), 10 microM Y-27632 dihydrochloride (Tocris Bioscience, cat. 1254), and 50 ng/mL human EGF recombinant protein (Thermo Fisher Scientific, cat. PHG0311). The 485176-168-R4-J1-PDC line was cultured in Panc media, which includes all 6C/Colon 1B media components plus 100 ng/mL human FGF-10 (Thermo Fisher Scientific, cat. 100-26), 500 nM SB-431542 (Selleckchem, cat. S1067), and gastrin (Tocris, cat. 3006).
[…]

[1] = second compound 0.0316 µM, first compound 0.0316 µM
[2] = second compound 0.0316 µM, first compound 0.1 µM
[3] = second compound 0.0316 µM, first compound 0.316 µM
[4] = second compound 0.0316 µM, first compound 1 µM
[5] = second compound 0.0316 µM, first compound 3.16 µM
[6] = second compound 0.0316 µM, first compound 10 µM
[7] = second compound 0.1 µM, first compound 0.0316 µM
[8] = second compound 0.1 µM, first compound 0.1 µM
[9] = second compound 0.1 µM, first compound 0.316 µM
[10] = second compound 0.1 µM, first compound 1 µM
[11] = second compound 0.1 µM, first compound 3.16 µM
[12] = second compound 0.1 µM, first compound 10 µM
[13] = second compound 0.316 µM, first compound 0.0316 µM
[14] = second compound 0.316 µM, first compound 0.1 µM
[15] = second compound 0.316 µM, first compound 0.316 µM
[16] = second compound 0.316 µM, first compound 1 µM
[17] = second compound 0.316 µM, first compound 3.16 µM
[18] = second compound 0.316 µM, first compound 10 µM
[19] = second compound 1 µM, first compound 0.0316 µM
[20] = second compound 1 µM, first compound 0.1 µM
[21] = second compound 1 µM, first compound 0.316 µM
[22] = second compound 1 µM, first compound 1 µM
[23] = second compound 1 µM, first compound 3.16 µM
[24] = second compound 1 µM, first compound 10 µM
[25] = second compound 3.16 µM, first compound 0.0316 µM
[26] = second compound 3.16 µM, first compound 0.1 µM
[27] = second compound 3.16 µM, first compound 0.316 µM
[28] = second compound 3.16 µM, first compound 1 µM
[29] = second compound 3.16 µM, first compound 3.16 µM
[30] = second compound 3.16 µM, first compound 10 µM
[31] = second compound 10 µM, first compound 0.0316 µM
[32] = second compound 10 µM, first compound 0.1 µM
[33] = second compound 10 µM, first compound 0.316 µM
[34] = second compound 10 µM, first compound 1 µM
[35] = second compound 10 µM, first compound 3.16 µM
[36] = second compound 10 µM, first compound 10 µM

Question: With `CC(=O)O[C@H]1C(=O)[C@@]2(C)[C@H]([C@H](OC(=O)c3ccccc3)[C@]3(O)C[C@H](OC(=O)[C@H](O)[C@@H](NC(=O)c4ccccc4)c4ccccc4)C(C)=C1C3(C)C)[C@]1(OC(C)=O)CO[C@@H]1C[C@@H]2O` + CN(C)c1ccc(Nc2c3ccc(NC(=O)CCN4CCCC4)cc3nc3cc(NC(=O)CCN4CCCC4)ccc23)cc1 as the molecule, how does the IC50 (second compound 0.0316 µM) read?
Answer: 61.2 nM

Question: And the IC50 (second compound 0.1 µM)?
Answer: 61.3 nM

Question: And the IC50 (second compound 0.316 µM)?
Answer: 61 nM

Question: What about the IC50 (second compound 1 µM) of the same molecule?
Answer: 61.7 nM

Question: And the IC50 (second compound 3.16 µM)?
Answer: 65.2 nM

Question: And the IC50 (second compound 10 µM)?
Answer: 55.5 nM

Question: And the viability, T/C [1]?
Answer: 86.3%

Question: What about the viability, T/C [2] of the same molecule?
Answer: 23.1%

Question: And the viability, T/C [3]?
Answer: 12.3%

Question: What about the viability, T/C [4] of the same molecule?
Answer: 11%

Question: What about the viability, T/C [5] of the same molecule?
Answer: 11.4%

Question: And the viability, T/C [6]?
Answer: 10.6%

Question: What about the viability, T/C [7] of the same molecule?
Answer: 86.5%

Question: What about the viability, T/C [8] of the same molecule?
Answer: 23%

Question: And the viability, T/C [9]?
Answer: 12.1%

Question: And the viability, T/C [10]?
Answer: 13.2%

Question: What about the viability, T/C [11] of the same molecule?
Answer: 11.7%

Question: And the viability, T/C [12]?
Answer: 12.9%

Question: And the viability, T/C [13]?
Answer: 88.1%

Question: What about the viability, T/C [14] of the same molecule?
Answer: 21.3%

Question: What about the viability, T/C [15] of the same molecule?
Answer: 12.2%

Question: And the viability, T/C [16]?
Answer: 10.6%

Question: What about the viability, T/C [17] of the same molecule?
Answer: 12.8%

Question: And the viability, T/C [18]?
Answer: 15%

Question: What about the viability, T/C [19] of the same molecule?
Answer: 87.5%

Question: And the viability, T/C [20]?
Answer: 23%

Question: What about the viability, T/C [21] of the same molecule?
Answer: 10.2%

Question: What about the viability, T/C [22] of the same molecule?
Answer: 12.8%

Question: And the viability, T/C [23]?
Answer: 10.4%

Question: What about the viability, T/C [24] of the same molecule?
Answer: 12.9%

Question: And the viability, T/C [25]?
Answer: 95.4%

Question: What about the viability, T/C [26] of the same molecule?
Answer: 23.2%

Question: And the viability, T/C [27]?
Answer: 11.7%

Question: And the viability, T/C [28]?
Answer: 10.7%

Question: And the viability, T/C [29]?
Answer: 11.6%

Question: And the viability, T/C [30]?
Answer: 11.9%

Question: And the viability, T/C [31]?
Answer: 76.8%

Question: What about the viability, T/C [32] of the same molecule?
Answer: 22%

Question: What about the viability, T/C [33] of the same molecule?
Answer: 13.3%

Question: And the viability, T/C [34]?
Answer: 11.7%

Question: And the viability, T/C [35]?
Answer: 10.9%

Question: And the viability, T/C [36]?
Answer: 12.4%

Question: `Nc1ccn(C2OC(CO)C(O)C2(F)F)c(=O)n1` (centres undefined) + CN(C)c1ccc(Nc2c3ccc(NC(=O)CCN4CCCC4)cc3nc3cc(NC(=O)CCN4CCCC4)ccc23)cc1 was tested. Which IC50 (second compound 0.0316 µM) did it give?
Answer: < 31.6 nM

Question: And the IC50 (second compound 0.1 µM)?
Answer: < 31.6 nM

Question: And the IC50 (second compound 0.316 µM)?
Answer: < 31.6 nM

Question: What about the IC50 (second compound 1 µM) of the same molecule?
Answer: < 31.6 nM

Question: What about the IC50 (second compound 3.16 µM) of the same molecule?
Answer: < 31.6 nM

Question: What about the IC50 (second compound 10 µM) of the same molecule?
Answer: < 31.6 nM

Question: And the viability, T/C [1]?
Answer: 13.1%

Question: And the viability, T/C [2]?
Answer: 5.96%

Question: And the viability, T/C [3]?
Answer: 5.05%

Question: What about the viability, T/C [4] of the same molecule?
Answer: 6.71%

Question: What about the viability, T/C [5] of the same molecule?
Answer: 7.93%

Question: And the viability, T/C [6]?
Answer: 7.84%

Question: And the viability, T/C [7]?
Answer: 12.4%

Question: And the viability, T/C [8]?
Answer: 6.04%

Question: What about the viability, T/C [9] of the same molecule?
Answer: 6.62%

Question: What about the viability, T/C [10] of the same molecule?
Answer: 6.98%

Question: And the viability, T/C [11]?
Answer: 7.52%

Question: And the viability, T/C [12]?
Answer: 8.82%

Question: What about the viability, T/C [13] of the same molecule?
Answer: 13.4%

Question: What about the viability, T/C [14] of the same molecule?
Answer: 5.96%

Question: What about the viability, T/C [15] of the same molecule?
Answer: 6.92%

Question: What about the viability, T/C [16] of the same molecule?
Answer: 7.41%

Question: What about the viability, T/C [17] of the same molecule?
Answer: 8.24%

Question: And the viability, T/C [18]?
Answer: 9.65%

Question: And the viability, T/C [19]?
Answer: 11%

Question: And the viability, T/C [20]?
Answer: 6.99%

Question: What about the viability, T/C [21] of the same molecule?
Answer: 6.31%

Question: What about the viability, T/C [22] of the same molecule?
Answer: 6.93%

Question: And the viability, T/C [23]?
Answer: 7.59%

Question: What about the viability, T/C [24] of the same molecule?
Answer: 10.1%

Question: And the viability, T/C [25]?
Answer: 13.2%

Question: And the viability, T/C [26]?
Answer: 6.34%

Question: And the viability, T/C [27]?
Answer: 6.54%

Question: What about the viability, T/C [28] of the same molecule?
Answer: 7.74%

Question: And the viability, T/C [29]?
Answer: 8.41%

Question: And the viability, T/C [30]?
Answer: 9.18%

Question: And the viability, T/C [31]?
Answer: 11.4%

Question: What about the viability, T/C [32] of the same molecule?
Answer: 5.96%

Question: What about the viability, T/C [33] of the same molecule?
Answer: 6.62%

Question: And the viability, T/C [34]?
Answer: 6.28%

Question: What about the viability, T/C [35] of the same molecule?
Answer: 9.34%

Question: What about the viability, T/C [36] of the same molecule?
Answer: 7.97%
